Measured values as given in ChEMBL document CHEMBL4421722, “Inhibitors of protein prenyltransferases” (2013).

Columns and labels:
[1] = Inhibition of rat recombinant geranylgeranyltransferase type I expressed in Escherichia coli assessed as reduction in geranylgeranylation of RhoA incubated for 30 mins in presence of [3H]GGPP by scintillation counting assay relative to control
[2] = Inhibition of rat recombinant geranylgeranyltransferase type I expressed in Escherichia coli assessed as reduction in geranylgeranylation of K-Ras4B incubated for 30 mins in presence of [3H]GGPP by scintillation counting assay
[3] = species on record: Rattus norvegicus; test: Inhibition of rat recombinant geranylgeranyltransferase type I expressed in Escherichia coli assessed as residual enzyme activity for geranylgeranylation of RhoA at 50 uM incubated for 30 mins in presence of [3H]GGPP by scintillation counting assay relative to control
[4] = target: Protein farnesyltransferase (Rattus norvegicus, UniProt Q02293+Q04631); test: Inhibition of rat recombinant FTase alpha/beta expressed in Escherichia coli using K-Ras4B as a substrate as and [3H]farnesyl pyrophosphate incubated for 30 mins by scintillation counting assay
[5] = target: T1, Geranylgeranyl transferase type-2 (Homo sapiens, UniProt P53611+Q92696); test: Inhibition of RabGGTase (unknown origin) using YPTI as substrate protein and [3H]geranylgeranyl pyrophosphate incubated for 20 mins by scintillation counting assay; type: protein-complex assay
T1 sequence (P53611 whole entry): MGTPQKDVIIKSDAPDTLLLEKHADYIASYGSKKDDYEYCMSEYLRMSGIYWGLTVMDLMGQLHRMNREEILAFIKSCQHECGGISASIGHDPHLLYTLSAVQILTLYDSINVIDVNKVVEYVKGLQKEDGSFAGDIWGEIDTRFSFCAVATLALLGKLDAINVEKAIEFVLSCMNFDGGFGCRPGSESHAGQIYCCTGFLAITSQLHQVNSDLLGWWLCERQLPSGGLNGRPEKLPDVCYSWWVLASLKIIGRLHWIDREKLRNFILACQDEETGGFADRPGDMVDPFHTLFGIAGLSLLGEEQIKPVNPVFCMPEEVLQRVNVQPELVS
T1 sequence (Q92696 whole entry): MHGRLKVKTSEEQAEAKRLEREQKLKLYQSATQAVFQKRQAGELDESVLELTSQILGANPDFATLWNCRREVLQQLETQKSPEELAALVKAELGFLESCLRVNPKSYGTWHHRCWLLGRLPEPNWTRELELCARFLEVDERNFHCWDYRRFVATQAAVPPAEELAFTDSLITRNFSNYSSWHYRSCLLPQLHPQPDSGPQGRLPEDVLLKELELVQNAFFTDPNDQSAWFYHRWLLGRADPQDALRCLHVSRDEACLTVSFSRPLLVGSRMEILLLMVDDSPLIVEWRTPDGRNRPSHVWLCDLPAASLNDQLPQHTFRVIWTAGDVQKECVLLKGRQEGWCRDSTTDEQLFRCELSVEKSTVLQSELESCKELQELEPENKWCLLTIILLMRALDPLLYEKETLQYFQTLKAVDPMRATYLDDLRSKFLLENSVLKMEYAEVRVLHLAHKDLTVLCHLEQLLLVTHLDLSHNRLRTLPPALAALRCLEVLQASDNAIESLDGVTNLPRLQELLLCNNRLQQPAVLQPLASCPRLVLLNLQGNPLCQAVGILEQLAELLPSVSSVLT

[6] = species on record: Rattus norvegicus; test: Inhibition of rat recombinant geranylgeranyltransferase type I expressed in Escherichia coli assessed as residual enzyme activity for geranylgeranylation of K-Ras4B at 50 uM incubated for 30 mins in presence of [3H]GGPP by scintillation counting assay relative to control
[7] = system: Jurkat; test: Antiproliferative activity against human Jurkat cells assessed as inhibition of cell proliferation incubated for 72 hrs by CCK8 assay; type: functional, cell-based
[8] = system: K562; test: Antiproliferative activity against human K562 cells assessed as inhibition of cell proliferation incubated for 72 hrs by CCK8 assay; type: functional, cell-based; details: K562, 72 h
[9] = Antiproliferative activity against human MCF10A cells assessed as inhibition of cell proliferation incubated for 72 hrs by CCK8 assay; type: cell-based, MCF-10A
[10] = system: MCF7; test: Antiproliferative activity against human MCF7 cells assessed as inhibition of cell proliferation incubated for 6 days by CCK8 assay; type: functional, cell-based; details: MCF7, 144 h
[11] = system: MIA PaCa-2; test: Antiproliferative activity against human MIAPaCa2 cells assessed as inhibition of cell proliferation incubated for 72 hrs by CCK8 assay; type: functional, cell-based; details: MIA PaCa-2, 72 h
[12] = system: CFPAC-1; test: Antiproliferative activity against human CFPAC-1 cells assessed as inhibition of cell proliferation incubated for 72 hrs by CCK8 assay; type: functional, cell-based; details: CFPAC-1, 72 h
[13] = system: Capan-2; test: Antiproliferative activity against human Capan2 cells assessed as inhibition of cell proliferation incubated for 72 hrs by CCK8 assay; type: functional, cell-based; details: Capan-2, 72 h
[14] = system: ASPC1; test: Antiproliferative activity against human AsPC1 cells assessed as inhibition of cell proliferation incubated for 6 days by CCK8 assay; type: functional, cell-based; details: ASPC1, 144 h

CC[C@@H]1C=C(C(=O)O)[C@H](c2ccc(F)cc2)N1S(=O)(=O)c1ccc(C)cc1
IC50 [1]: 200 µM | IC50 [2]: 250 µM

CC(C)(C)[C@@H]1C=C(C(=O)O)[C@H](c2ccccc2)N1S(C)(=O)=O
IC50 [1]: 23 µM | IC50 [2]: 15 µM

CC(C)(C)OC(=O)CCS[C@H]1[C@@H](C(=O)O)[C@H](c2ccc(Cl)cc2)N(S(=O)(=O)c2ccccc2)[C@@H]1CC1CCCC1
IC50 [1]: 2.4 µM | Activity [3]: 9.7% | IC50 [4]: > 100 µM | IC50 [5]: 7 µM | Activity [6]: 30.4%

Cc1ccc(S(=O)(=O)N2[C@@H](c3ccccc3)C(C(=O)O)=CC[C@H]2c2ccc(F)cc2)cc1
IC50 [1]: 120 µM | IC50 [2]: 80 µM

CCC[C@@H]1[C@@H](Sc2ccc(OC)cc2)[C@@H](C(=O)O)[C@H](c2ccc(Cl)c(Cl)c2)N1S(=O)(=O)c1ccc(C)cc1
IC50 [1]: < 2.5 µM | IC50 [2]: < 2 µM | Activity [3]: 1.1% | Activity [6]: 10.9%

Cc1ccc(S(=O)(=O)N2[C@@H](c3ccc(Cl)c(Cl)c3)C(C(=O)O)=C[C@H]2C(C)(C)C)cc1
IC50 [1]: 40 µM | IC50 [2]: 33 µM

CC(C)(C)[C@@H]1C=C(C(=O)N[C@@H](Cc2ccccc2)C(N)=O)[C@H](c2ccc(Cl)c(Cl)c2)N1S(=O)(=O)C(C)(C)C
IC50 [1]: 2.7 to 50 µM | GI50 [7]: 4.57 to 5.91 µM | GI50 [8]: 4.22 to 5.9 µM

CCOC(=O)C1=C[C@@H](C(C)(C)C)N(S(=O)(=O)c2ccccc2C)[C@H]1c1ccc(Cl)cc1
IC50 [8]: > 25 µM

CC(C)C[C@H](NC(=O)C1=CC[C@@H](c2cccc(Br)c2)N(S(=O)(=O)c2ccc(Cl)cc2)[C@H]1c1cccc(Cl)c1)C(N)=O
GI50 at 72 h [9]: 14.2 µM | GI50 [10]: 3.43 µM | GI50 [8]: 7.06 µM

Cc1ccc(S(=O)(=O)N2[C@@H](c3cccc(F)c3)C(C(=O)O)=C[C@H]2C(C)(C)C)cc1
IC50 [1]: 23 µM | IC50 [2]: 18 µM | Activity [3]: 9.1% | Activity [6]: 23.7%

CC(C)C[C@H](NC(=O)C1=CC[C@@H](c2cccc(Br)c2)N(S(=O)(=O)c2ccc(F)cc2)[C@H]1c1cccc(Cl)c1)C(N)=O
IC50 [1]: 6.9 to 32.9 µM | GI50 [7]: 0.32 to 1.76 µM | GI50 [8]: 1.7 to 10.2 µM

CCCCC[C@@H]1[C@@H](Sc2ccc(C)cc2)[C@H](C(=O)O)[C@H](c2ccc(C)cc2)N1S(=O)(=O)c1ccc(C)cc1
IC50 [1]: 100 µM | IC50 [2]: 65 µM

Cc1ccccc1S(=O)(=O)N1[C@@H](c2cccc(Cl)c2)C(CO)=CC[C@H]1c1ccc(Cl)cc1
IC50 [1]: > 100 µM | GI50 [7]: 7.5 µM | GI50 [8]: 5.8 µM

CC(C)C[C@H](NC(=O)C1=CC[C@@H](c2cccc(Cl)c2)N(S(=O)(=O)c2ccc(Br)cc2)[C@H]1c1cccc(Br)c1)C(N)=O
IC50 [1]: > 50 µM | GI50 [7]: 2.22 to 6.38 µM | GI50 [8]: 4.37 to 12.9 µM

CC(C)(C)[C@@H]1C=C(C(=O)O)[C@H](c2ccc(Cl)cc2)N1S(C)(=O)=O
IC50 [1]: > 50 µM | IC50 [2]: 45 µM

CC(C)(C)OC(=O)CCS[C@H]1[C@@H](C(=O)O)[C@H](c2ccc(Cl)cc2)N(S(=O)(=O)c2ccc(Cl)cc2)[C@@H]1CC1CCCC1
IC50 [1]: 8.9 µM | Activity [3]: 9.8% | IC50 [4]: > 100 µM | IC50 [5]: 3.1 µM | Activity [6]: 22.5%

CCCCCS[C@H]1[C@@H](C(=O)O)[C@H](c2ccc(Br)cc2)N(S(=O)(=O)c2ccc(C)cc2)[C@@H]1CCC
IC50 [1]: > 50 µM | IC50 [4]: > 100 µM | IC50 [5]: 3.6 µM

CCC[C@@H]1[C@@H](Sc2ccc(OC)cc2)[C@@H](C(=O)O)[C@H](c2ccc(Br)cc2)N1S(=O)(=O)c1ccc(C)cc1
IC50 [1]: > 50 µM | IC50 [4]: > 100 µM | IC50 [5]: 4.5 µM

COC(=O)[C@H](Cc1ccccc1)NC(=O)COCC1=C[C@@H](C(C)(C)C)N(S(=O)(=O)c2ccccc2C)[C@H]1c1ccc(Cl)cc1
IC50 [1]: 2.1 to 20 µM | GI50 [7]: 3.51 to 5.1 µM | IC50 [8]: 5.8 to 6.01 µM

CCCCCCS[C@H]1[C@@H](C(=O)O)[C@H](c2ccc(Cl)c(Cl)c2)N(S(=O)(=O)c2ccc(C)cc2)[C@@H]1CCC
IC50 [1]: 5.1 µM | IC50 [4]: > 100 µM | IC50 [5]: 7 µM

Cc1ccccc1S(=O)(=O)N1[C@@H](c2ccc(Cl)cc2)C(C(N)=O)=C[C@H]1C(C)(C)C
IC50 [8]: 11 µM

COC(=O)[C@H](Cc1ccccc1)NC(=O)C1=C[C@@H](C(C)(C)C)N(S(=O)(=O)c2ccccc2C)[C@H]1c1ccc(Cl)cc1
IC50 [1]: > 50 µM | GI50 [7]: 10.5 to 19 µM | GI50 [8]: 14 to 17 µM | IC50 [8]: 10.5 µM

Cc1ccc(S(=O)(=O)N2[C@H](C)C=C(C(=O)O)[C@@H]2c2cccc(Cl)c2)cc1
IC50 [1]: 30 µM | IC50 [2]: 20 µM

Cc1ccc(S(=O)(=O)N2[C@H](CC3CCCC3)[C@@H](SCCC(=O)OC(C)(C)C)[C@@H](C(=O)O)[C@@H]2c2cccc(Cl)c2)cc1
IC50 [1]: 8.7 µM | Activity [3]: 5.6% | IC50 [4]: > 100 µM | IC50 [5]: 4.7 µM | Activity [6]: 20.6%

COC(=O)[C@H](CC(C)C)NC(=O)c1ccc(NCc2cnc[nH]2)cc1-c1ccccc1C
IC50 [1]: 0.5 µM | IC50 [2]: 0.6 µM

Cc1ccc(S(=O)(=O)N2[C@H](C)C=C(C(=O)O)[C@@H]2c2ccc(Cl)c(Cl)c2)cc1
IC50 [1]: 45 µM | IC50 [2]: 38 µM

Cc1ccccc1S(=O)(=O)N1[C@@H](c2ccc(Cl)cc2)C(C(=O)N[C@@H](Cc2ccccc2)C(=O)O)=C[C@H]1C(C)(C)C
GI50 [11]: 7.48 µM | GI50 [12]: 6.38 µM | GI50 [13]: 11.5 µM | GI50 [14]: 12.4 µM

NC(=O)[C@H](Cc1ccccc1)NC(=O)C1=CC[C@@H](c2cccc(Cl)c2)N(S(=O)(=O)c2ccc(Br)cc2)[C@H]1c1cccc(Cl)c1
IC50 [1]: 1.3 to 20 µM | GI50 [7]: 3.57 to 4.86 µM | GI50 [8]: 7.69 to 10.3 µM

CCCCCCS[C@H]1[C@@H](C(=O)O)[C@H](c2ccc(Br)cc2)N(S(=O)(=O)c2ccc(C)cc2)[C@@H]1CCCCCC
IC50 [1]: > 50 µM | IC50 [4]: > 100 µM | IC50 [5]: 2.2 µM

Cc1ccccc1S(=O)(=O)N1[C@@H](c2cccc(Cl)c2)C(C(=O)N[C@@H](CC(C)C)C(N)=O)=CC[C@H]1c1ccc(Cl)cc1
IC50 [1]: > 50 µM | GI50 [11]: 12 µM | GI50 [12]: 13.7 µM | GI50 at 72 h [9]: > 20 µM | GI50 [7]: 6.1 µM | GI50 [13]: 14 µM | GI50 [10]: 10.9 µM | GI50 [8]: 6.15 µM

CCCCCCS[C@H]1[C@@H](C(=O)O)[C@H](c2ccc(Br)cc2)N(S(=O)(=O)c2ccc(C)cc2)[C@@H]1CC
IC50 [1]: > 50 µM | IC50 [4]: > 100 µM | IC50 [5]: 4.8 µM
